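Values below derive from 48-hour exposures of cells grown in 96-well plates, with endpoints linearly interpolated between the two concentrations bracketing the appropriate inhibition level. The concentration for 50% growth inhibition is given as GI50. Definition used: TGI = concentration required for complete inhibition of growth.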
Tests used:
Experiment in all cases: NCI-60 cell line screen, 48 h
SK-MEL-5 melanoma = test system: SK-MEL-5 melanoma
IGROV1 ovarian = test system: IGROV1 ovarian
MOLT-4 leukemia = test system: MOLT-4 leukemia
SK-MEL-28 melanoma = test system: SK-MEL-28 melanoma
RPMI-8226 leukemia = test system: RPMI-8226 leukemia
OVCAR-4 ovarian = test system: OVCAR-4 ovarian
HT29 colon = test system: HT29 colon
UACC-257 melanoma = test system: UACC-257 melanoma
SNB-19 CNS = test system: SNB-19 CNS
NCI-H460 lung = test system: NCI-H460 lung

SMILES	GI50 (SK-MEL-5 melanoma) [µM]	TGI (SK-MEL-5 melanoma) [µM]	GI50 (IGROV1 ovarian) [nM]	TGI (IGROV1 ovarian) [µM]	GI50 (MOLT-4 leukemia) [nM]	TGI (MOLT-4 leukemia) [µM]	GI50 (SK-MEL-28 melanoma) [µM]	TGI (SK-MEL-28 melanoma) [µM]	GI50 (RPMI-8226 leukemia) [nM]	TGI (RPMI-8226 leukemia) [µM]	GI50 (OVCAR-4 ovarian) [nM]	TGI (OVCAR-4 ovarian) [µM]	GI50 (HT29 colon) [µM]	TGI (HT29 colon) [µM]	GI50 (UACC-257 melanoma) [µM]	TGI (UACC-257 melanoma) [µM]	GI50 (SNB-19 CNS) [µM]	TGI (SNB-19 CNS) [µM]	GI50 (NCI-H460 lung) [µM]	TGI (NCI-H460 lung) [µM]
CCOC(=O)N[C@H]1CCc2c(Br)c(OC)c(OC)c(OC)c2-c2ccc(SC)c(=O)cc21	< 0.01	0.0237	18.9	16.2	< 10.8	> 45.3	8.06	23.4	< 10	> 33.7	60.8	> 53.5	< 0.01	> 34.5	8.64	45.2	< 0.01	26.5	< 0.01	1.61
CC(=O)OC1CCC2(C)C(=CCC3C4CCC5(OC6CC(C)CN(C(C)=O)C6C5C)C(C)=C4C(=O)C32)C1 (stereo not given)		21.9		29.1		23.6		> 100		37.6		61.4		43.8		27.3		32.7		35.1
C(=C\c1nccc2c1[nH]c1ccccc12)/c1ccccc1	2.27	8.05	664	23.6	2840	22.3	4.78	28.4	1070	3.92	3180	> 100	3.07	11.9	17.8	76.7	4.4	48.4	3.28	13.7
O=C(O)c1cc(Cc2ccc(O)c(C(=O)O)c2)ccc1O (tested in a mixture with another compound)	4.9	19.8	4720	20.6	2660	> 100	10.1	26.8	2620	> 100	6080	29.2	2.98	10.4	3.34	7.77	12.8	28.2	3.53	17.4
Cc1ccc2c(c1)O/C(=C\c1ccc([N+](=O)[O-])o1)C2=O	1.61	3.04	1420	4.69	2350	7.52	2.15	4.89	447	2.54	1470	2.84	0.659	2.08	1.54	3.31	3.98	21.6	1.58	3.22
C1=C(c2ccccc2)C(c2ccc(OCCN3CCCCC3)cc2)Oc2ccccc21 (stereo not given)	1.78	3.16	2070	5.07	2370	5.84	1.18	2.54	2250	5.02	2370	7.09	1.76	3.86	2.02	4.15	2.06	4.16	1.94	3.72
CO[C@@]12C[C@H]3[C@@H]([C@@H](O)[C@@H](OC(=O)/C=C/c4ccccc4)[C@@]4(O)C(C)(C)CCC[C@]34C)[C@@H](C)C1=CC(=O)O2	4.55	18.3	29500	> 100	> 100000	> 100	11.3	35.4	3580	20.8	5030	30.4	4.6	26.5	14.4	32.1	16.1	> 100	12.4	82.9
CCCCCCCCCCCC(O)=C1C(=O)CC(O)CC1=O (stereo not given)		> 100		> 100		> 100		> 100		> 100		> 100		> 100		> 100		> 100		> 100
COC(=O)C1(C2CC/C(C)=C/CC/C(C)=C/CC[C@@]3(C)O[C@@H]3C2)CC1 (stereo not given in full)	56.1	> 100	30300	> 72	29300	> 100	> 100	> 100	16900	48.4	> 100000	> 100	68.1	> 100	> 83.7	> 100	> 100	> 100	35.5	> 100
COc1ccc(-c2nnc(N3CCN(C(=O)CN4CCN(c5ccc(Cl)cc5)CC4)CC3)nc2-c2ccc(OC)cc2)cc1	7.91	> 100	29400	> 100	6530	> 100	> 100	> 100	5190	> 100	> 100000	> 100	4.74	> 100	59.4	> 100	40.1	> 100	14.4	> 100
C/C1=C\C/C=C(\C)[C@H]2CC(CC/C(C)=C/CC1)[C@](C)(C=O)O2	77.1	> 100	18200	> 100	21000	> 100	> 100	> 100	27100	76.8	> 100000	> 100	> 100	> 100	> 100	> 100	> 100	> 100	85.1	> 100
CC(C)(C)OC(=O)CN1CCc2c(sc3ncnc(N/N=C/c4cccc5ccccc45)c23)C1	4.08	8.28	1870	7.4	1260	9.39	4.41	15.7	1050	4.22	2580	14.1	3.47	12.3	4.59	21.7	4.73	32.1	1.62	6.22
COc1ccc2c(c1)cn1c3ccc(O)cc3[nH]c(=O)c21	0.0362	1.32	338	4.77	316	6.95	0.147	6.33	306	1.93	2410	13.4	0.411	2.18	0.836	18.5	0.203	19.5	0.138	1.62

Reference: PubChem BioAssay (NCI)
